Assay results: US20250352518A1, “A BENZIMIDAZOLE COMPOUND WITH ANTIHELMINTHIC ACTIVITY FOR USE IN REVERSING, ARRESTING OR SLOWING DOWN CELLULAR AGEING IN A VERTEBRATE SUBJECT” (RAVAN BIO LIMITED, priority 2022, published 2025)

How the values were obtained:
[1] = test system: post-confluent NHEK cells; experiment: Growth of re-cultured post-confluent (cell-cell contact growth arrested) NHEK's; type: cell-based, human; details: for continued growth of post-confluent NHEK's (phase contrast): passage 4, 24 hours with compound, 10 μM Y27632, 500-1250 nM Tadalafil, 50-200 nM Fenbendazole; for concentration causing optimal cell growth: post-confluent NHEK
Text: Neonatal human epidermal foreskin keratinocytes (NHEKs) were used to test the ability of compounds to reverse, arrest or slow down cellular ageing. These cells typically undergo approximately 35 cell divisions before the Hayflick limit is reached but they can be induced to undergo premature senescence and, what has been understood to be, irreversible growth arrest earlier than this by induction of cell-cell contact growth inhibition when cultured at high cell density/to confluence (Poumay & Pittelkow 1995 J Inv Dermatol 104, p 271-276). The inventors were thus inspired to culture post-confluent cells and assess the effect of test compounds on the growth, telomere loss and secretion of inflammatory factors by such cells. An experimental schematic is provided as FIG. 1. 1.1 Culture of Early Passage NHEK's in the Presence and Absence of y27632 Pooled donor neonatal NHEK's (Cat No C-12005, Lot No 456Z001.1, PromoCell GmBH), serum-free PromoCell Keratinocyte Growth Medium 2 (KSFM, Cat No C20011. Lot No 472M197), CaCl2) (Lot No 471055) and Supplements (Lot No 472M013) were all obtained from PromoCell GmBH. NHEK's were thawed directly into a single T75 in 20 mls of complete KSFM (CaCl2 & Supplements), incubated over night at 37° C., 5% CO2 and the medium changed the following day. After 3 days the cells were 80% confluent and were passaged (Ist) using 0.05% Trypsin+EDTA (Gibco) into ×2 T75 flasks at a split ratio of 1:4. After overnight incubation at 37° C., 5% CO2, the cultures were at 30% confluence and 10 μM Y27632 (Cat No 688000, Lot No 2884132, Merck) was added to one of the flasks. […] Fresh T75 flasks were seeded with 5.0×10^5 cells from each in their respective medium. […] Fresh T75 flasks were seeded, as described previously, and also 1.2×10^4 NHEK cells/well were seeded into 24 well plates, incubated overnight to allow cell attachment, and the following subsequently added to separate wells: • A. NHEK in complete KSFM • B. NHEK+Y27632 in complete KSFM • C. Y27632 treated NHEK transferred to complete KSFM (Y27632 Removed) • D. NHEK transferred to complete KSFM+500 nM Tadalafil • E. NHEK transferred to complete KSFM+750 nM Tadalafil • F. NHEK transferred to complete KSFM+1000 nM Tadalafil • G. NHEK transferred to complete KSFM+1250 nM Tadalafil • H. NHEK transferred to complete KSFM+50 nM Fenbendazole • I. NHEK transferred to complete KSFM+100 nM Fenbendazole • J. NHEK transferred to complete KSFM+150 nM Fenbendazole • K. NHEK transferred to complete KSFM+200 nM Fenbendazole All drugs were added 24 hours after seeding. […] FIG. 2B is an example of the appearance of post-confluent cells.
Post-confluent NHEK's (FIG. 2B) were subsequently passaged (4th) into a fresh 24 well plate using a split ratio of 1 in 4 in 2 mls of fresh complete KSFM. These were left overnight to attach and the same compounds added (as shown in A-K of 1.1) followed by incubation for a further 24 hours and subsequently photographed.

Interleukin 6 (IL-6) = experiment: IL-6 secretion by NHEK's (Human IL-6 SimpleStep ELISA); type: cell-based; details: post-confluent NHEKs, 4 days post-confluence, FIG. 9b; Tadalafil at 500 nM
Method: Aliquots of 60,000 NHEK cells were seeded into separate T25 flasks in complete KSFM and incubated at 5% CO2, 37° C. for 3 days until they reached 20% confluence. Fenbendazole and Tadalafil were then added to each of these as either single agents, or in combination, and the cells incubated for a further 3 days at 5% CO2, 37° C. until the cells reached >50% confluence. A sample of medium was then taken for analysis of IL-6 levels using a Human IL-6 SimpleStep ELISA Kit (AbCam Cat No ab178013) according to the manufacturer's instructions (FIG. 9a). Both medium and drugs were replaced, the cells incubated for a further 3 days until confluent, medium and drugs were changed and the incubation continued for 4 days post-confluence when final medium samples were taken for analysis of IL6 levels (FIG. 9b). Each data point was repeated in triplicate and OD 490 nm readings were determined with a Dynex MRX Plate reader.

[2] = test system: post-confluent NHEK cells; experiment: Growth of re-cultured post-confluent (cell-cell contact growth arrested) NHEK's; type: cell-based, human
[3] = test system: neonatal human epidermal foreskin keratinocytes (NHEKs); experiment: Culture of early passage NHEK's in the presence and absence of Y27632 (live cell counts); type: cell-based
Text: Neonatal human epidermal foreskin keratinocytes (NHEKs) were used to test the ability of compounds to reverse, arrest or slow down cellular ageing. These cells typically undergo approximately 35 cell divisions before the Hayflick limit is reached but they can be induced to undergo premature senescence and, what has been understood to be, irreversible growth arrest earlier than this by induction of cell-cell contact growth inhibition when cultured at high cell density/to confluence (Poumay & Pittelkow 1995 J Inv Dermatol 104, p 271-276). The inventors were thus inspired to culture post-confluent cells and assess the effect of test compounds on the growth, telomere loss and secretion of inflammatory factors by such cells. […] Lot No 472M197), CaCl2) (Lot No 471055) and Supplements (Lot No 472M013) were all obtained from PromoCell GmBH. NHEK's were thawed directly into a single T75 in 20 mls of complete KSFM (CaCl2 & Supplements), incubated over night at 37° C., 5% CO2 and the medium changed the following day. […] After a further 48 hours both flasks were 60% confluent and phase contrast images were recorded (Zeiss […]). […] The inventors assessed that these cells had stopped growing due to cell-cell contact inhibition and had become post-confluent as defined herein. […]

14th passage NHEK cells = experiment: Toxic effects on late-passage (passage 14) NHEK's; type: cell-based, human; details: 6 days, 10 μM Y27632 or 500 nM Tadalafil+100 nM Fenbendazole
Text: NHEK's were maintained in complete KSFM for 55 days with serial passage routinely carried out at 80% confluence in T75 flasks, as previously described in 1.1. These cells were not grown to be post-confluent and the cells were therefore not used to assess the ability of test compounds to reverse, arrest or slow down cellular ageing. Instead, the cells were used to assess whether or not Y27632, fenbendazole or tadalafil has any toxic effects. After the 55 days, a total of 50,000 cells/well of 14th passage NHEK cells were seeded into 6 well plates and, after 24 hours, Y27632, and a mixture of Tadalafil and Fenbendazole were added.

| Structure (SMILES) | continued growth of post-confluent NHEK's (phase contrast) ([1]; FIG. 3) | concentration causing optimal cell growth ([1]; cultured for a further 24 hrs, FIG. 4) | concentration causing optimal cell growth ([1]; passage 4, 24 hours, FIG. 3) [nM] | secretion of IL-6 compared to DMSO control (Interleukin 6 (IL-6)) | number of viable cells (Via-1 Assay) following withdrawal of drug ([2]; treatment P3-P5 only, withdrawn following passage 6, 5 days, FIG. 5) | number of viable cells (Via-1 Assay) ([2]; treatment continued for passages P3-P6, 5 days after passage 6, FIG. 5) | total live cell counts ([3]; KSFM+10 μM Y27632, 2nd passage at 80% confluence) | cell counts ([3]; KSFM+10 μM Y27632, 3rd passage, 72 hours after seeding 5.0×10^5 cells) | proliferation and cell death of late passage cells (14th passage NHEK cells) |
| --- | --- | --- | --- | --- | --- | --- | --- | --- | --- |
| CN1CC(=O)N2[C@H](c3ccc4c(c3)OCO4)c3[nH]c4ccccc4c3C[C@@H]2C1=O [Tadalafil, pyrazino[1′,2′: 1,6]pyrido[3,4-b]indole-1,4-dione, 6-(1,3-benzodioxol-5-yl)-2,3,6,7,12,12a-hexahydro-2-methyl-, (6R,12aR)] | all exhibited cell growth | about 1000 nM | 750 to 1000 | least effective | 1.3×10^4 cells/ml | 4.3×10^4 cells/ml |  |  |  |
| C[C@@H](N)[C@H]1CC[C@H](C(=O)Nc2ccncc2)CC1 [Y27632] | no, or minimal cell rejuvenation |  |  |  |  |  | 5.2×10^5 cells/ml | 5.3×10^5 cells/ml | no proliferation and extensive cell death |
